{"source": "paper PMC12334608", "about": "(Nature Communications, 2025)", "target": "T1, ACOX-1.1(R343Q) (Caenorhabditis elegans, UniProt O62140, R343Q)", "T1 sequence (O62140 1-674 R343Q)": "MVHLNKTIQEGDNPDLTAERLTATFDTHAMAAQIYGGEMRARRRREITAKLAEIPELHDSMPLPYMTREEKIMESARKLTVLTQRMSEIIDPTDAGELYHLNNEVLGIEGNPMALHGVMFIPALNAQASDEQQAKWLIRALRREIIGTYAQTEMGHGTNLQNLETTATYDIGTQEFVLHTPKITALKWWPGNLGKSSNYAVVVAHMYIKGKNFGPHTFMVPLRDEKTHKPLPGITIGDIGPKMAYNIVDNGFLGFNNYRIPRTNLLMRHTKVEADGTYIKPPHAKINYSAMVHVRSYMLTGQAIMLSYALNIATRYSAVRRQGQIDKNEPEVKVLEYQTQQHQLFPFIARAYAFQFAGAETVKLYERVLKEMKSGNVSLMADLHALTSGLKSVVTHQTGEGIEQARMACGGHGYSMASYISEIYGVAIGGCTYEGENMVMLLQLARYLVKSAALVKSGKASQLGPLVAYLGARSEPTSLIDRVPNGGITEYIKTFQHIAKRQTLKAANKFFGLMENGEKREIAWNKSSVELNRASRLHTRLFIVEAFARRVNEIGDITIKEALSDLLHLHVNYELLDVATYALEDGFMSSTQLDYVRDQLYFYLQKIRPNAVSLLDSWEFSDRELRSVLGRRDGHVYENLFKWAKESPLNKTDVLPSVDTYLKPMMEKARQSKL", "assay": "Enzyme-coupled kinetic assay, ACOX-1.1", "assay_type": "biochemical, C. elegans", "conditions": "varying ATP", "data": [{"smiles": "Nc1ncnc2c1ncn2[C@@H]1O[C@H](COP(=O)(O)OP(=O)(O)OP(=O)(O)O)[C@@H](O)[C@H]1O", "note": "[ATP]", "values": [{"measurement": "influence of ATP on the activity of the enzyme", "result": "no influence on the activity of the enzyme"}]}]}
